Patent US8426407B2, “Preparation of 1-(substituted aryl)-5-trifluoromethyl-2-(1H)pyridone compounds and salts thereof and their applications” (Central South University, priority 2009, dated 2013)

How the values were obtained:
[1] = test system: NIH3T3 fibroblasts; assay: Inhibition test of compounds on NIH3T3 fibroblasts (MTT method); type: cell-based; conditions: for Multiple: multiple of activity versus fluorofenidone from IC50 values; for IC50: MTT, relative to fluorofenidone on a certain plate
Description: Inhibition Test of Compounds on NIH3T3 Fibroblasts
An MTT method is used and comprises steps of: culturing cells in DMEM culture medium including 5% calf serum and preparing the cells into cell suspension of 3×10^4/ml; inoculating in 96-well plate according to 100 μl/well; transferring new culture medium including compounds with different concentration, fluorofenidone and 1% calf serum after cells are adhered, wherein three repeated wells are provided for each concentration; respectively adding 100 μl of MTT solution in each well after 48 hours and 72 hours of administrating (the culture medium is prepared into 5 mg/ml and kept in dark after filtering), sucking out MTT after 4 hours; adding 150 μl of DMSO which is the dissolving liquid of MTT; after 10 min and MTT is completely dissolved, measuring OD value by ELISA reader; calculating IC50 values of fluorofenidone and measured compounds according to inhibition ratio; calculating multiple of activities of measured compounds and fluorofenidone according to IC50 values of fluorofenidone and measured compounds; and obtaining relative IC50 value of measured compounds according to multiple and IC50 value of fluorofenidone on a certain plate.

[2] = test system: rat unilateral ureteral obstruction renal fibrosis model; assay: Rat unilateral ureteral obstruction renal fibrosis model; type: in vivo
Description: Observation of Treatment Effect of Compound 13 in a Rat Unilateral Ureteral Obstruction Renal Fibrosis Model
(1) Randomization: nine rats are divided into three groups at random, namely a normal group (n=3); a model group (n=3) and a treatment group (n=3) treated by compound 13 of 15 mg/kg; three rats are in a hutch; and the experimental animals are adaptively fed for two days. […]
HE stained slices of renal tissues are successively observed in fives fields of view of renal tubulointerstitium on upper left side, upper right side, lower left side, lower right side and middle portion by a low power lens and are evaluated according to eight indexes of renal interstitium lesion: renal tubular epithelial cell vacuolar degeneration, renal tubular ectasia, renal tubular atrophy, red cell cast, protein cast, interstitial edema, interstitial fibrosis and interstitial inflammatory cell infiltration; an average value is calculated as the index of renal tubulointerstitial lesion of the sample; and the evaluation standard is based on the reference of Radford M G Jr, Donadio J V Jr, Bergstralh E J, et al. Predicting renal outcome in IgA nephropathy. […]
Masson staining slices of renal tissues are observed in 20 fields of vision for each sample at random under 400X light microscope; percent of blue-stain collagens in the fields of vision is calculated; an average value is determined after semi-quantitative evaluation: no positive staining, 0; <25%, 1; 25-50%, 2; 50-75%, 3; >75%, 4; and the evaluation standard is based on references. […]

[3] = Mus musculus, NIH3T3, 48 h, 48 hours after administration
[4] = Mus musculus, NIH3T3, 72 h, 72 hours after administration

| SMILES | Multiple ([1]; 48 hours) | Multiple ([1]; 72 hours) | IC50 [1, 3] | IC50 [1, 4] | IC50 ([1]; 48 hours after administration) | IC50 ([1]; 72 hours after administration) | Treatment effect on renal fibrosis (conclusion) ([2]; 15 mg/kg) | Score (X ± S), renal interstitium collagens of left kidneys, MASSON staining ([2]; 15 mg/kg intragastric once per day for 12 days, SD rats n=3, model group 2.45 ± 0.38, normal group 0.25 ± 0.00, p < 0.01 vs model) | Score (X ± S), index of renal tubulointerstitial lesions of obstruction kidneys, HE staining ([2]; 15 mg/kg intragastric once per day for 12 days, SD rats n=3, model group 9.00 ± 1.00, normal group 0.33 ± 0.12, p < 0.01 vs model) |
| --- | --- | --- | --- | --- | --- | --- | --- | --- | --- |
| O=c1ccc(C(F)(F)F)cn1-c1ccc(NCCCN2CCOCC2)cc1Cl [Compound 2, 1-(2-chloro-4-((3-morpholinylpropyl)amino)phenyl)-5-(trifluoromethyl)pyridin-2(1H)-one] | 18.36 | 21.87 | 241 µM | 161 µM |  |  |  |  |  |
| O=c1ccc(C(F)(F)F)cn1-c1ccc(NCCOCCO)cc1Cl [Compound 8, 1-(2-chloro-4-((2-(2-hydroxyethoxy)ethyl)amino)phenyl)-5-(trifluoromethyl)pyridin-2(1H)-one] | 9.09 | 10.59 | 487 µM | 332 µM |  |  |  |  |  |
| O=c1ccc(C(F)(F)F)cn1-c1ccc(NCCCN2CCCCC2)cc1Cl [Compound 3, 1-(2-chloro-4-((3-piperidin-1-yl)propylamino)phenyl)-5-(trifluoromethyl)pyridin-2(1H)-one] | 18.60 | 54.0 |  |  | 238 µM | 65 µM |  |  |  |
| O=c1ccc(C(F)(F)F)cn1-c1ccc(NCCN2CCCCC2)cc1Cl [Compound 10, 1-(2-chloro-4-((2-(piperidyl-1-yl)ethyl)amino)phenyl)-5-(trifluoromethyl)pyridin-2(1H)-one] | 20.73 | 56.50 | 214 µM | 62 µM |  |  |  |  |  |
| O=c1ccc(C(F)(F)F)cn1-c1ccc(NCCN2CCOCC2)cc1Cl [Compound 11, 1-(2-chloro-4-((2-morpholinylethyl)amino)-phenyl)-5-(trifluoromethyl)pyridin-2(1H)-one] | 25.50 | 62.50 | 174 µM | 56 µM |  |  |  |  |  |
| O=c1ccc(C(F)(F)F)cn1-c1ccc(NCCO)cc1Cl [Compound 5, 1-(2-chloro-4-((2-hydroxyethyl)amino)phenyl)-5-(trifluoromethyl)pyridin-2(1H)-one] | 3.21 | 5.57 | 1380 µM | 632 µM |  |  |  |  |  |
| O=c1ccc(C(F)(F)F)cn1-c1ccc(N(CCO)CCO)cc1Cl [Compound 6, 1-(4-(N,N-(2-hydroxyethyl)amino)-2-chlorophenyl)-5-(trifluoromethyl)pyridin-2(1H)-one] | 6.91 | 6.00 | 641 µM | 587 µM |  |  |  |  |  |
| CN1CCN(CCCNc2ccc(-n3cc(C(F)(F)F)ccc3=O)c(Cl)c2)CC1 [Compound 1, 1-(2-chloro-4-((3-(4-methylpiperazin-1-yl)propyl)amino)phenyl)-5-(trifluoromethyl)pyridin-2(1H)-one] | 15.50 | 21.60 | 286 µM | 163 µM |  |  |  |  |  |
| Cl.O=c1ccc(C(F)(F)F)cn1-c1ccc(NCCCN2CCCCC2)cc1Cl [Compound 7, 1-(2-chloro-4-(((3-piperidin-1-yl)propyl)amino)phenyl)-5-(trifluoromethyl)pyridin-2(1H)-one hydrochloride] | 17.09 | 71.17 | 259 µM | 49 µM |  |  |  |  |  |
| O=c1ccc(C(F)(F)F)cn1-c1ccc(NCCN2CCN(CCO)CC2)cc1Cl [Compound 13, 1-(2-chloro-4-((2-(4-(2-hydroxyethyl)piperazin-1-yl)ethyl)amino)-phenyl)-5-(trifluoromethyl)pyridin-2(1H)-one] | 44.14 | 57.20 | 100 µM | 62 µM |  |  | can effectively treat renal fibrosis | 1.52 ± 0.16^⋆⋆** | 7.00 ± 0.35^⋆⋆** |
| CCCCOCCCNc1ccc(-n2cc(C(F)(F)F)ccc2=O)c(Cl)c1 [Compound 4, 1-(4-((3-butoxypropyl)amino)-2-chlorophenyl)-5-(trifluoromethyl) pyridin-2(1H)-one] | 6.31 | 11.31 | 702 µM | 311 µM |  |  |  |  |  |
| CN1CCN(CCNc2ccc(-n3cc(C(F)(F)F)ccc3=O)c(Cl)c2)CC1 [Compound 12, 1-(2-chloro-4-((2-(4-methylpiperazin-1-yl)ethyl)amino)phenyl)-5-(trifluoromethyl)pyridin-2(1H)-one] | 13.42 | 33.33 | 330 µM | 106 µM |  |  |  |  |  |
